Four compounds from ChEMBL document CHEMBL1773011, “New and more efficient multivalent glyco-ligands for asialoglycoprotein receptor of mammalian hepatocytes” (Bioorg Med Chem, 2011) can be followed below.

As usually defined, the IC50 is the midpoint of a concentration-inhibition curve.

The assay is described as follows: Displacement of Eu-DTPA labeled ASOR from rat primary hepatocytes Asialoglycoprotein receptor after 20 mins by fluorometric analysis. Format: cell-based. The note with it: hepatocyte.

With `NCCCCC(C(=O)NCCCCCCOC1O[C@H](CO)[C@@H](O[C@@H]2O[C@H](CO)[C@H](O)[C@H](O)[C@H]2O)[C@H](O)[C@H]1O)N(CC(=O)NCCCCCCOC1O[C@H](CO)[C@@H](O[C@@H]2O[C@H](CO)[C@H](O)[C@H](O)[C@H]2O)[C@H](O)[C@H]1O)CC(=O)NCCCCCCOC1O[C@H](CO)[C@@H](O[C@@H]2O[C@H](CO)[C@H](O)[C@H](O)[C@H]2O)[C@H](O)[C@H]1O` (some centres undefined), the IC50 was > 1000 nM.

For the compound `CC(=O)N[C@@H]1C(OCCCCCCNC(=O)C(CCCCNC(=O)OCc2ccccc2)N(CC(=O)NCCCCCCOC2O[C@H](CO)[C@H](O)[C@H](O)[C@H]2NC(C)=O)CC(=O)NCCCCCCOC2O[C@H](CO)[C@H](O)[C@H](O)[C@H]2NC(C)=O)O[C@@H](CO)[C@@H](O)[C@H]1O` (stereo in doubt), the IC50 came to 12 nM.

Consider `CC(=O)NC1C(OCCCCCCNC(=O)CNC(=O)C[C@H](NC(=O)[C@H](CC(=O)NCC(=O)NCCCCCCOC2O[C@@H](CO)[C@@H](O)[C@@H](O)C2NC(C)=O)NC(=O)[C@@H](N)Cc2ccc(O)cc2)C(=O)NCC(=O)NCCCCCCOC2O[C@@H](CO)[C@@H](O)[C@@H](O)C2NC(C)=O)O[C@@H](CO)[C@@H](O)[C@H]1O` (single isomer, unassigned), for which the IC50 turned out to be 20 nM. Compared with the last compound, the IC50 is about 1.7-fold higher.

Consider `CC(=O)N[C@H]1C(OCCCCCCNC(=O)CNC(=O)CN(CC(=O)NCC(=O)NCCCCCCOC2O[C@H](CO)[C@H](O)[C@H](O)[C@H]2NC(C)=O)C(CCCCNC(=O)OCc2ccccc2)C(=O)NCC(=O)NCCCCCCOC2O[C@H](CO)[C@H](O)[C@H](O)[C@H]2NC(C)=O)O[C@H](CO)[C@H](O)[C@@H]1O` (stereo in doubt), for which the IC50 was 1 nM.
